# Data from paper PMC7993375, “Discovery of novel quinoline-based analogues of combretastatin A-4 as tubulin polymerisation inhibitors with apoptosis inducing activity and potent anticancer effect” (Journal of Enzyme Inhibition and Medicinal Chemistry, 2021).
# How the values were obtained:
# [1] = test system: HL-60; experiment: MTT cell viability assay, HL-60 leukaemia cells; format: cell-based; conditions: Homo sapiens, 72 h, read-out: IC50 value, HL-60
# Protocol: (§1) The four human tumour cell lines MCF-7, HCT-116, HL-60 and HeLa used in this study were obtained from the VACSERA (Giza, Egypt) cell culture unit that were originally acquired from ATCC (Manassas, VA, USA). All the human tumour cell lines were cultured in Dulbecco’s Modified Eagle’s Medium (DMEM) with 10% foetal bovine serum, 2 mM L-glutamine and 100 µg/mL penicillin/streptomycin. Cells were maintained at 37 °C in 5% CO2 in a humidified incubator. All cells were sub-cultured 3 times/week by trypsinisation using TrypLE Express (1X).
# (§2) The quinoline compounds were evaluated for antiproliferative effect using the MTT viability assay of four cancer cell lines (MCF-7, HCT-116, HL-60 and HeLa) and normal breast cells MCF-10A to calculate the relative IC50 values for each compound. Cells were seeded in triplicate in 96-well plates at a density of 10 × 10^3 cells/ml in a total volume of 200 µl per well. 0.1% of DMSO was used as a vehicle control. Following, the cells were treated with 2 µl test compound (from stock solutions in ethanol) to furnish the concentration range of study, 1 nM to 50 µM, and re-incubated for a further 72 h. The culture medium was then removed, and the cells washed with 100 µL phosphate buffered saline (PBS) and 50 µL MTT added, to reach a final concentration of 1 mg/mL. Cells were incubated for 2 h in darkness at 37 °C. Solubilisation was begun through the addition of […] DMSO, and the cells maintained at room temperature in darkness for 20 min to ensure thorough colour diffusion before reading the absorbance. Plates were incubated for 72 h at 37 °C + 5% CO2. The MTT (5 mg/mL in PBS) was added and incubated for another 4 h, and the optical density was detected with a microplate reader at 570 nm. Results were expressed as percentage viability relative to vehicle control (100%). Dose response curves were plotted and IC50 values (concentration of drug resulting in 50% reduction in cell survival) were obtained using the commercial software package Prism (GraphPad Software, Inc., La Jolla, CA, USA). All the experiments were repeated in at least three independent experiments.
# [2] = test system: HeLa; experiment: MTT cell viability assay, HeLa cervical adenocarcinoma cells; format: cell-based; conditions: Homo sapiens, 72 h
# Protocol: as §1, §2
# [3] = test system: HCT-116; experiment: MTT cell viability assay, HCT-116 colorectal carcinoma cells; format: cell-based; conditions: Homo sapiens, 72 h
# Protocol: as §1, §2
# [4] = test system: bovine brain tubulin; experiment: Tubulin polymerisation assay; format: biochemical; conditions: for IC50: Tubulin was at 10 µM, read-out: Tubulin assembly IC50 (inhibition of tubulin polymerisation)
# Protocol: The assembly of purified bovine tubulin was monitored using a kit, BK006, purchased from Cytoskeleton Inc., (Denver, CO, USA). The assay was carried out in accordance with the manufacturer’s instructions using the standard assay conditions. Briefly, purified ([…]) in a buffer consisting of 80 mM PIPES (pH 6.9), 0.5 mM EGTA, 2 mM MgCl2, 1 mM GTP and 10% glycerol was incubated at 37 °C in the presence of either vehicle (2% (v/v) ddH2O), CA-4, or the quinoline compounds. Light is scattered proportionally to the concentration of polymerised microtubules in the assay. Therefore, tubulin assembly was monitored turbidimetrically at 340 nm in a Spectramax 340 PC spectrophotometer (Molecular Devices, Sunnyvale, CA, USA). The concentration that inhibits tubulin polymerisation by 50% (IC50) was determined using area under the curve (AUC). The AUC of the untreated controls were considered as 100% polymerisation. The IC50 value for each compound was computed using GraphPad Prism Software.
# [5] = test system: MCF-7; experiment: MTT cell viability assay, MCF-7 breast adenocarcinoma cells; format: cell-based; conditions: Homo sapiens, MCF7, 72 h, read-out: IC50 value, MCF-7
# Protocol: as §1, §2
# [6] = test system: MCF-7, HL-60, HCT-116 and HeLa; experiment: MTT cell viability assay, statements over all four cancer cell lines; format: cell-based, human
# Protocol: as §1, §2
SMILES,IC50 [1] [nM],IC50 [2] [nM],IC50 [3] [nM],IC50 [4] [nM],IC50 [5] [nM],melting point [°C],IC50 ([6]; Homo sapiens) [nM],IC50 over all four cancer cell lines [6],fold less active than CA-4 (tubulin assembly) [4] [fold],fold less active than 12c (tubulin polymerisation) [4] [fold]
"COc1cc(C2=NC(=Cc3cc4ccccc4nc3OC)C(=O)O2)cc(OC)c1OC [Compound 12a, 4-[(2-Methoxyquinolin-3-yl)methylene]-2–(3,4,5-trimethoxyphenyl)oxazol-5(4H)-one]",3309 ± 22,2110 ± 34,2010 ± 80,14000,1710 ± 40,215 to 217,–,–,6,–
"COc1cc(C2=NC(=Cc3cc4cccc(C)c4nc3OC)C(=O)O2)cc(OC)c1OC [Compound 12d, 4-[(2-Methoxy-8-methylquinolin-3-yl)methylene]-2–(3,4,5-trimethoxyphenyl) oxazol-5(4H)-one]",268 ± 93,153 ± 83,191 ± 1,–,154 ± 71,236 to 238,–,–,–,–
"COc1cc(C2=NC(=Cc3cc4ccc(OCc5ccccc5)cc4nc3OC)C(=O)O2)cc(OC)c1OC [Compound 12h, 4-[(7-(Benzyloxy)-2-methoxyquinolin-3-yl)methylene]-2–(3,4,5-trimethoxyphenyl)oxazol-5(4H)-one]",4660 ± 260,1050 ± 840,1560 ± 720,–,1930 ± 612,247 to 249,–,–,–,–
"COc1cc(C2=NC(=Cc3cc4cc(C)ccc4nc3OC)C(=O)N2)cc(OC)c1OC [Compound 13b, 5-[(2-Methoxy-6-methylquinolin-3-yl)methylene]-2–(3,4,5-trimethoxyphenyl)-3,5-dihydro-4H-imidazol-4-one]",240 ± 12,188 ± 13,173 ± 25,–,63 ± 1.1,223 to 225,–,submicromolar,–,–
"COc1cc(C2=NC(=Cc3cc4ccc(C)cc4nc3OC)C(=O)N2)cc(OC)c1OC [Compound 13c, 5-[(2-Methoxy-7-methylquinolin-3-yl)methylene]-2–(3,4,5-trimethoxyphenyl)-3,5-dihydro-4H-imidazol-4-one]",661 ± 26,733 ± 91,284 ± 83,20300,223 ± 56,236 to 238,–,submicromolar,–,16
"COc1cc(C2=NC(=Cc3cc4cccc(C)c4nc3OC)C(=O)N2)cc(OC)c1OC [Compound 13d, 5-[(2-Methoxy-8-methylquinolin-3-yl)methylene]-2–(3,4,5-trimethoxyphenyl)-3,5-dihydro-4H-imidazol-4-one]",96 ± 6,126 ± 44,109 ± 11,–,137 ± 23,233 to 235,–,submicromolar,–,–
"COc1ccc2nc(OC)c(C=C3N=C(c4cc(OC)c(OC)c(OC)c4)NC3=O)cc2c1 [Compound 13e, 5-[(2,6-Dimethoxyquinolin-3-yl)methylene]-2–(3,4,5-trimethoxyphenyl)-3,5-dihydro-4H-imidazol-4-one]",272 ± 50,62 ± 3,85 ± 3,1480,42 ± 2.5,253 to 255,–,–,–,–

# The remaining compounds from weak to strong by IC50 [1], led by results:
IC50 [1] [nM],IC50 [2] [nM],IC50 [3] [nM],IC50 [4] [nM],IC50 [5] [nM],melting point [°C],IC50 ([6]; Homo sapiens) [nM],IC50 over all four cancer cell lines [6],SMILES,fold less active than CA-4 (tubulin assembly) [4] [fold],fold less active than 12c (tubulin polymerisation) [4] [fold]
5110 ± 410,4440 ± 600,1620 ± 950,–,5560 ± 133,238 to 240,–,–,"COc1cc(C2=NC(=Cc3cc4ccc(OC(C)C)cc4nc3OC)C(=O)N2)cc(OC)c1OC [Compound 13g, 5-((7-Isopropoxy-2-methoxyquinolin-3-yl)methylene)-2–(3,4,5-trimethoxyphenyl)-3,5-dihydro-4H-imidazol-4-one]",–,–
4930 ± 260,2070 ± 390,2610 ± 430,–,1700 ± 821,259 to 261,–,–,"COc1cc(C2=NC(=Cc3cc4ccc(OCc5ccccc5)cc4nc3OC)C(=O)N2)cc(OC)c1OC [Compound 13h, 5-[(7-(Benzyloxy)-2-methoxyquinolin-3-yl)methylene]-2–(3,4,5-trimethoxyphenyl)-3,5-dihydro-4H-imidazol-4-one]",–,–
1820 ± 640,1750 ± 500,7880 ± 300,8230,1510 ± 220,227 to 229,–,–,"COc1cc(C2=NC(=Cc3cc4ccc(OC(C)C)cc4nc3OC)C(=O)O2)cc(OC)c1OC [Compound 12g, 4-[(7-Isopropoxy-2-methoxyquinolin-3-yl)methylene]-2–(3,4,5-trimethoxyphenyl)oxazol-5(4H)-one]",4,–
1560 ± 55,1410 ± 96,8210 ± 7.7,–,1030 ± 55,230 to 232,> 1000,–,"COc1cc(C2=NC(=Cc3cc4ccccc4nc3OC)C(=O)N2)cc(OC)c1OC [Compound 13a, 5-[(2-Methoxyquinolin-3-yl)methylene]-2–(3,4,5-trimethoxyphenyl)-3,5-dihydro-4H-imidazol-4-one]",–,–
352 ± 21,138 ± 26,66 ± 5,–,52 ± 2.1,221 to 223,–,–,"COc1ccc2cc(C=C3N=C(c4cc(OC)c(OC)c(OC)c4)OC3=O)c(OC)nc2c1 [Compound 12f, 4-[(2,7-Dimethoxyquinolin-3-yl)methylene]-2–(3,4,5-trimethoxyphenyl)oxazol-5(4H)-one]",–,–
210 ± 98,101 ± 90,187 ± 9,–,92 ± 6.2,241 to 243,–,–,"COc1ccc2cc(C=C3N=C(c4cc(OC)c(OC)c(OC)c4)NC3=O)c(OC)nc2c1 [Compound 13f, 5-[(2,7-Dimethoxyquinolin-3-yl)methylene]-2–(3,4,5-trimethoxyphenyl)-3,5-dihydro-4H-imidazol-4-one]",–,–
197 ± 41,117 ± 85,184 ± 7,–,132 ± 13,218 to 220,–,–,"COc1cc(C2=NC(=Cc3cc4cc(C)ccc4nc3OC)C(=O)O2)cc(OC)c1OC [Compound 12b, 4-[(2-Methoxy-6-methylquinolin-3-yl)methylene]-2–(3,4,5-trimethoxyphenyl) oxazol-5(4H)-one]",–,–
68 ± 34,10 ± 4,31 ± 1,2260,56 ± 27,242 to 244,–,–,COc1ccc2nc(OC)c(/C=C3\N=C(c4cc(OC)c(OC)c(OC)c4)OC3=O)cc2c1 [Compound 12e],–,–
